This is an account of results in patent publication US7060677B1, “Antimicrobial activity of the first cationic cluster of human lactoferrin” (priority 1999, dated 2006).

Peptide text beside a SMILES is read from it.

The subject of one series is bacterial infection. Kind of series: Imaging microbial infections with 99mTc-labeled hLF and peptides. The conditions noted are these: as described in Example VI. The source says: The mice were placed in supine position on a planar gamma camera (Toshiba GCA 7100/UI. Tokyo, Japan) with both hind legs spread out and fixed with surgical tape. Continuous whole body acquisitions of the mice of each 60 s during the first hour after injection of the tracer were made with the gamma camera, equipped with a low-energy general purpose parallel-hole collimator. The camera was connected to a computer (GMS 5500 UI, Toshiba) and high-resolution images of the animals were stored as a 256×256 matrix. The energy peak was set at 140 keV with a window of 20%.
(§1) On the scintigrams, anatomically adjusted regions of interest (ROI) were drawn over the various organs and both thighs providing data about clearance of ^99mTc-peptides and accumulation at the site of infection. […] The amount of radioactivity in the heart was corrected for decay and expressed as a percentage of injected dose (% ID).

Series [1] in a line: Pharmacology of 99mTc-labeled hLF and peptides by scintigraphy in infected mice. As to the method: Lactoferrins and related peptides were labeled with ^99mTechnetium (^99mTc) as described (22, 23). Briefly, 10 μl of a peptide solution (1 mg/ml of HAc) was added to 2 μl of an aseptic solution of 0.5 mg of stannous pyrophosphate/ml (Dept. of Clinical Pharmacy and Toxicology. Leiden University Medical Center (LUMC). Leiden. The Netherlands). Immediately thereafter, 4 μl of a solution of 10 mg of KBH4 (crystalline. Sigma) per ml of 0.1 M NaOH was added. After addition of 0.1 ml of ^99mTc-sodium pertechnetate solution (200 MBq/ml. Mallinckrodt Medical BV, Petten, The Netherlands), the mixture was gently stirred at ambient temperature for 30 min and then was ready for use. Quality control of the labeling was performed by RP-HPLC analysis using a Sep-Pak C18 cartridge (Waters, Milford, Mass.) in 20 ml of 0.01 M HAc. After rinsing with 20 ml of 0.01 M HAc, proteins and peptides were eluted with 2 ml of methanol (Sigma).
The mice were placed in supine position on a planar gamma camera (Toshiba GCA 7100/UI. Tokyo, Japan) with both hind legs spread out and fixed with surgical tape. Continuous whole body acquisitions of the mice of each 60 s during the first hour after injection of the tracer were made with the gamma camera, equipped with a low-energy general purpose parallel-hole collimator. […] The energy peak was set at 140 keV with a window of 20%.
as §1

Series [2] has as its system the various bacteria (L. monocytogenes, antibiotic resistant S. aureus, K. pneumoniae, E. coli). Kind of series: Assay for antibacterial activity, statements on the various bacteria together. It counts as cell-based. The conditions noted are these: FIGS. 2A–2D: 7 μM peptide, 1 h at 37° C., NaPB-TSB. On the procedure:
Listeria monocytogenes strain EGD. Klebsiella pneumoniae (43816), and Escherichia coli O54 were purchased from the American Type Culture Collection (Rockville, Md.). Antibiotic resistant S. aureus, K. pneumoniae and E. coli were cultured overnight in nutrient broth (Oxoid, Basingstoke, UK) at 37° C., diluted in tryptase soya broth (TSB, Oxoid) and cultured for an additional 2 h in a shaking waterbath at 37° C. L. monocytogenes was cultured overnight in brain heart infusion broth (BHI, Oxoid) at 37° C. diluted and cultured for an additional 2 h in a shaking waterbath at 37° C.
In short, bacteria were washed with phosphate-buffered saline (PBS) (pH 7.4) and diluted to a concentration of approximately 2×10^6 CFU/ml of phosphate-buffered saline (pH 6.0) supplemented with 0.1% (v/v) Tween-20 (hereafter designated as PBS-Tw). […] At various time intervals (range 0–4 h) after incubation at 37° C. the number of viable bacteria was determined microbiologically. As negative controls, bovine serum albumin (BSA; Sigma) or no peptide were included.

As to `CC(C)[C@H](NC(=O)[C@H](CO)NC(=O)[C@H](CCCNC(=N)N)NC(=O)[C@H](CCCNC(=N)N)NC(=O)[C@H](CCCNC(=N)N)NC(=O)[C@H](CCCNC(=N)N)NC(=O)CN)C(=O)N[C@@H](CCC(N)=O)C(=O)N[C@@H](Cc1c[nH]c2ccccc12)C(=O)N[C@@H](CS)C(=O)N[C@@H](C)C(=O)O` [hLF(1–11)] (H-GRRRRSVQWCA-OH; N-terminus and C-terminus assumed), in the series on bacterial infection, the “Accumulation at the site of infection (in words)” value (from here on “Accumulation at the site”) is listed as “rapidly accumulate at the site of infection”. For the same compound, the “mean t1/2 of removal from the circulation” value in series [1] (99mTc-labeled, S. aureus infected mice, n=3, radioactivity over the heart in first hour) was roughly 9 min. Regarding `CC(C)[C@H](NC(=O)[C@H](CO)NC(=O)[C@H](CCCNC(=N)N)NC(=O)[C@H](CCCNC(=N)N)NC(=O)[C@H](CCCNC(=N)N)NC(=O)[C@@H](N)CCCNC(=N)N)C(=O)N[C@@H](CCC(N)=O)C(=O)N[C@@H](Cc1c[nH]c2ccccc12)C(=O)N[C@@H](CS)C(=O)N[C@@H](C)C(=O)O` [hLF(2–11)] (H-RRRRSVQWCA-OH; N-terminus and C-terminus assumed), the “Accumulation at the site” value in the series on bacterial infection was “rapidly accumulate at the site of infection”. With `CC(C)[C@H](NC(=O)[C@H](CO)NC(=O)[C@H](CCCNC(=N)N)NC(=O)[C@H](CCCNC(=N)N)NC(=O)[C@@H](N)CCCNC(=N)N)C(=O)N[C@@H](CCC(N)=O)C(=O)N[C@@H](Cc1c[nH]c2ccccc12)C(=O)N[C@@H](CS)C(=O)N[C@@H](C)C(=O)O` [hLF(3–11)] (H-RRRSVQWCA-OH; N-terminus and C-terminus assumed), the “Accumulation at the site” value in the series on bacterial infection is “rapidly accumulate at the site of infection”.

As for `CC(C)[C@H](NC(=O)[C@H](CO)NC(=O)[C@H](CCCNC(=N)N)NC(=O)[C@@H](N)CCCNC(=N)N)C(=O)N[C@@H](CCC(N)=O)C(=O)N[C@@H](Cc1c[nH]c2ccccc12)C(=O)N[C@@H](CS)C(=O)N[C@@H](C)C(=O)O` [hLF(4–11)] (H-RRSVQWCA-OH; N-terminus and C-terminus assumed), the “mean t1/2 of removal from the circulation” value in series [1] (Swiss, mouse, in vivo) is reported as “approximately 1 min”. Same read-out and setting: to `CSCC[C@H](NC(=O)[C@H](CC(N)=O)NC(=O)[C@H](CCCNC(=N)N)NC(=O)[C@H](CCC(N)=O)NC(=O)[C@H](Cc1c[nH]c2ccccc12)NC(=O)[C@H](CCC(N)=O)NC(=O)[C@@H](N)Cc1ccccc1)C(=O)N[C@@H](CCCNC(=N)N)C(=O)N[C@@H](CCCCN)C(=O)N[C@H](C(=O)N[C@@H](CCCNC(=N)N)C(=O)O)C(C)C` [hLF(21–31), reference compound] (H-FQWQRNMRKVR-OH; N-terminus and C-terminus assumed) belongs roughly 2 min. For “hLF(5–11): synthetic fragment of hLF(1–11): residues 5–11 of hLF (SVQWCAV; UniProt P02788 24-30, looked up, fragment)”, in series [2], the “Bactericidal activity of synthetic peptides against the various bacteria (in words)” value is “ineffective”.

Take “hLF(6–11): synthetic fragment of hLF(1–11): residues 6–11 of hLF (VQWCAV; UniProt P02788 25-30, looked up, fragment)”: the “Bactericidal activity of synthetic peptides against the various bacteria (in words)” value in series [2] was “ineffective”.
